Experimental data from patent publication US7410975B2, “Small molecule toll-like receptor (TLR) antagonists” (Coley Pharmaceutical Group, Inc., priority 2003, dated 2008).

Molecular target: T1, human TLR8 (hTLR8) (Homo sapiens, UniProt Q9NR97)
T1 construct: expressed in transfected cells
T1 sequence (Q9NR97 27-1041): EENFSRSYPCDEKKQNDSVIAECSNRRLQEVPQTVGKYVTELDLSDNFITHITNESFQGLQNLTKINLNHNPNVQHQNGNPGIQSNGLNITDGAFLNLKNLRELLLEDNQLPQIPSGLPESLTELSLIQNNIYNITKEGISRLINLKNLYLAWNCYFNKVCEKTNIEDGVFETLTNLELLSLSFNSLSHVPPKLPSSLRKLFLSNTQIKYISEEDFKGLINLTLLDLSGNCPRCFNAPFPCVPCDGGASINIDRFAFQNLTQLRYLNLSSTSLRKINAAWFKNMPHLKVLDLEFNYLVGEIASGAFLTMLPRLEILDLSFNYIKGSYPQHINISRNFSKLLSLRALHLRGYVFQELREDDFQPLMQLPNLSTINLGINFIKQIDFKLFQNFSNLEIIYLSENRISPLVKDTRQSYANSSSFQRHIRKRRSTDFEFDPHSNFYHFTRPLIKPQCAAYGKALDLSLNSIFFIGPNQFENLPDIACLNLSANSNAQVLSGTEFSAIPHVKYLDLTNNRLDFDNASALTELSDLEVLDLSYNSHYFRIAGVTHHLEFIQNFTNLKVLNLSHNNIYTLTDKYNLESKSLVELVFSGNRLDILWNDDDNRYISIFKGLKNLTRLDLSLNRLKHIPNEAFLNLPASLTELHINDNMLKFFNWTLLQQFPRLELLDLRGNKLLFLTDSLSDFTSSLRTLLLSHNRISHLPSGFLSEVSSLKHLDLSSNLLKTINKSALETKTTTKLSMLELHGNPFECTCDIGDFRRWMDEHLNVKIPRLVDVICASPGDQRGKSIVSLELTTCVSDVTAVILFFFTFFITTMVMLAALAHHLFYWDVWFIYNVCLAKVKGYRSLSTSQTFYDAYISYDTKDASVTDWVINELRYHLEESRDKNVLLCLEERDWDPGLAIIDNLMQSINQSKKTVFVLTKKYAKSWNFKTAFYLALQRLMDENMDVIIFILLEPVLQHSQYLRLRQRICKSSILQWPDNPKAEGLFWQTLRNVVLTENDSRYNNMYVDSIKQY
Assay: Antagonist screen, hTLR8-NFκB-293 cells, NF-κB-luciferase reporter, with EC50 of R848
Type: cell-based
Details: compound at 0.5, 5, 50 μg/ml; EC50 concentration of R848; 16 h; NF-κB-luciferase
Method: The method is described in greater detail as follows. The cells for each individual cell clone (hTLR3-NFκB-293, hTLR7-NFκB-293, hTLR8-NFκB-293 and hTLR9-NFκB-293) were counted and seeded one day before the stimulation at 1.5×10^4 cells per well in 96-well cell culture plates. To become adherent the cells were incubated after seeding overnight at 37° C. in 5% CO2 humidified air.
The screen for each compound was performed at the same time for all of the receptors TLR3, TLR7, TLR8 and TLR9. Up to fifteen test compounds, each assayed in duplicate at each of three different final concentrations (0.5 μg/ml, 5 μg/ml, and 50 μg/ml), were used for 16 h cell stimulation on a single multiwell culture plate. A 4× final concentration master plate was created to prepare the different test compounds before they were added to the cells.
Controls were added as duplicates individually for each cell clone on the cell culture plate. Positive controls were used as follows (final concentrations): 50 μg/ml poly(I:C) for hTLR3-NFκB-293; 8 μM resiquimod (R848) for hTLR7-NFκB-293; 30 μM R848 for hTLR8-NFκB-293; and 2.5 μM CpG-ODN 2006 for hTLR9-NFκB-293. Media alone was used as negative control. After addition of controls and small molecules, the cell clones were additionally stimulated with the EC50 concentration of the appropriate receptor-specific ligand.
The mean value of wells H2 and H5 (each with cells and EC50 concentration of the appropriate receptor-specific ligand) divided by the mean of wells H3 and H6 (each with cells alone) yielded the baseline response (i.e., fold induction of luciferase activity) to EC50 concentration of the appropriate receptor-specific ligand.
After 16 h stimulation the supernatant was removed and the cells treated with lysis buffer and stored at −80° C. before measuring.
For each screen result a graphical documentation was performed.
The baseline result (measured with addition of the EC50 concentration of the receptor-specific ligand) for each cell culture plate was measured as described above. Antagonistic effects were measured by down regulation compared to the baseline. Antagonists were scored as follows: • 13: compounds for which there was clear down regulation at 0.5 μg/ml, 5 μg/ml, and 50 μg/ml; • 12: compounds for which there was clear down regulation at 5 μg/ml and 50 μg/ml; • 11: compounds for which there was clear down regulation only at 50 μg/ml; • —: compounds for which there was no clear down regulation even at 50 μg/ml. Agonists
Results were expressed as fold induction over baseline luciferase activity measured in the absence of R848. […] Additional screening was performed in like manner using additional small molecules selected from another library or specifically prepared for this purpose. Scoring is reported as above but as applied to TLR8.

Compound | hTLR8 (inhibitory effect, antagonist score)
Cc1cc(OC(=O)C2C3CCCCC32)c(C(C)C)cc1C1(c2cc(C(C)C)c(OC(=O)C3C4CCCCC43)cc2C)OC(=O)c2ccccc21 (centres unmarked) [compound 974] | 11 (compounds for which there was clear down regulation only at 50 μg/ml)
CCN(CC)CCCN(CC(=O)C1c2ccc(Cl)cc2NC(=O)c2ccccc21)C(=O)c1ccccc1 (centres unmarked) [compound 1013] | — (compounds for which there was no clear down regulation even at 50 μg/ml)
O=C1c2ccccc2C(=O)c2c1ccc1c(=O)n(C3CCCCC3)[nH]c21 [compound 1015] | 11 (compounds for which there was clear down regulation only at 50 μg/ml)
CCOC(=O)c1cc([N+](=O)[O-])cc2c1-c1ccc([N+](=O)[O-])cc1C2=C(C#N)C#N [compound 1039] | 11 (compounds for which there was clear down regulation only at 50 μg/ml)
O=C1c2ccccc2C(=O)c2c1ccc1c(=O)n(-c3ccccc3)[nH]c21 [compound 1042] | 13 (compounds for which there was clear down regulation at 0.5 μg/ml, 5 μg/ml, and 50 μg/ml)
O=C(c1cccc2c1-c1ccccc1/C2=N\O)N1CCCCC1 [compound 1050] | 11 (compounds for which there was clear down regulation only at 50 μg/ml)
NC(=O)c1cccc2c1-c1ccccc1C2 [compound 1132] | 11 (compounds for which there was clear down regulation only at 50 μg/ml)
NC(=O)c1cc(N)c2c(c1N)C(=O)c1ccccc1C2=O [compound 1158] | — (compounds for which there was no clear down regulation even at 50 μg/ml)
CC(=O)Oc1cc(C)c(C2(c3cc(C(C)C)c(OC(C)=O)cc3C)OC(=O)c3ccccc32)cc1C(C)C [compound 1161] | 12 (compounds for which there was clear down regulation at 5 μg/ml and 50 μg/ml)
COC(=O)c1cccc(C(O)(c2ccccc2)c2ccccc2)c1S(=O)(=O)C(C)(C)C [compound 1187] | 11 (compounds for which there was clear down regulation only at 50 μg/ml)
CCOCCOC(=O)c1cc([N+](=O)[O-])cc2c1-c1c(cc([N+](=O)[O-])cc1[N+](=O)[O-])C2=C(C#N)C#N [compound 1241] | — (compounds for which there was no clear down regulation even at 50 μg/ml)
CC1CCN(C(=O)c2cccc3c2-c2ccccc2C3=O)CC1 [compound 1243] | 11 (compounds for which there was clear down regulation only at 50 μg/ml)
Cc1cccc(C2(c3cccc(C)c3)OC(=O)c3ccccc32)c1 [compound 1308] | 12 (compounds for which there was clear down regulation at 5 μg/ml and 50 μg/ml)
COCCCNC(=O)c1ccc2c(c1N)C(=O)c1ccccc1C2=O [compound 1337] | 11 (compounds for which there was clear down regulation only at 50 μg/ml)
O=C1Nc2ccccc2Oc2ccc([N+](=O)[O-])cc21 [compound 1352] | — (compounds for which there was no clear down regulation even at 50 μg/ml)
Flunarizinehydrochloride [compound 312] | — (compounds for which there was no clear down regulation even at 50 μg/ml)
Maprotilinehydrochloride [compound 346] | 11 (compounds for which there was clear down regulation only at 50 μg/ml)
Metixene hydrochloride [compound 491] | 11 (compounds for which there was clear down regulation only at 50 μg/ml)
Prochlorperazinedimaleate [compound 399] | 11 (compounds for which there was clear down regulation only at 50 μg/ml)
Trifluoperazinedihydrochloride [compound 313] | 11 (compounds for which there was clear down regulation only at 50 μg/ml)
